Data as given in US20250170090A1, “METHOD FOR PREVENTING OR TREATING DISEASE OR DISORDER ASSOCIATED WITH ANTINEOPLASTIC AGENT” (ONQUALITY PHARMACEUTICALS CHINA LTD., priority 2022, published 2025).
Read-outs that look alike come from different tables or passages of the source.

Tested on: HUVEC cells
Assay: CCK-8 cell viability: alleviation of proliferative toxicity of anti-tumor agents on HUVEC cells (Tables 7-1, 7-2)
Type: cell-based
Settings: for activation at 100 µM: Homo sapiens, 24 h, percentage increase in viable cells vs anti-tumor agent alone, read-out: Response rate % (average)
Procedure: The cultured HUVEC cells were digested the suspended, counted, and seed into a 96-well plate with 5,000-10,000 cells per well. The wells are divided into the following groups: blank control group, anti-tumor agent group, anti-tumor agent+NO-NSAID group, anti-tumor agent solvent group, NO-NSAID control group. Wherein each well of each group contained a basic medium, and the final liquid volume contained in each well was about 100 μL. The grouping situation was as follows: • 1) Blank control group: no solution was added except normally replacing the medium; • 2) Anti-tumor agent group: added the anti-tumor agent solution (the final concentration was shown in Table 7-1 and Table 7-2, the solvent of the anti-tumor agent solution was DMSO); • 3) Anti-tumor agent+NO-NSAID group: added the anti-tumor agent solution and the NO-NSAID solution (the final concentrations of anti-tumor agent and NO-NSAID were shown in Table 7-1 and Table 7-2, and according to the solubility of NO-NSAID, the solvent of NO-NSAID solution was selected as ethanol or sterile water, and minor volume differences in each group were adjusted by added the corresponding solvent); • 4) Anti-tumor agent solvent group: an equal volume of DMSO as contained in the corresponding anti-tumor agent solution in Group 2) was added; • 5) NO-NSAID control group: the same volume and type of solvent (for example, ethanol or sterile water) corresponding to the NO-NSAID contained in group 3) was added.
The anti-tumor agent solvent group was not involved in data processing and was only used as a reference for evaluating experimental system error. The NO-NSAID solvent control group was used for data correction to eliminate the influence of the solvent on the results.
After culturing for 24-48 hours, the Cell Counting Kit-8 (CCK-8) detection kit (C0037, Shanghai Beyotime Biotechnology Co., Ltd., Beyotime Biotechnology) was used to determine the cell viability. This allows for the calculation of the proliferative toxicity of anti-tumor agent on cell and the mitigating effect of NO-NSAID on proliferative toxicity. The results were statistically analyzed and plotted using GraphPad Prism 6.0 software and t test.

[1] = Afatinib (10 μM), NO-NSAID 100 μM
[2] = Cabozantinib (5 μM), NO-NSAID 100 μM
[3] = Dabrafenib (10 μM), NO-NSAID 100 μM
[4] = Everolimus (5 μM), NO-NSAID 100 μM
[5] = Infigratinib (15 μM), NO-NSAID 100 μM
[6] = Lapatinib (5 μM), NO-NSAID 100 μM

In the case of CC(=O)Oc1ccccc1C(=O)Oc1cccc(CO[N+](=O)[O-])c1 [Compound A2], the “NO-NSAID response rate % (average)” value (Afatinib (10 μM), NO-NSAID 0.1 μM) is reported as 15%, the “NO-NSAID response rate % (average)” value (Afatinib (10 μM), NO-NSAID 1 μM) is reported as 17% and the “NO-NSAID response rate % (average)” value [1] is reported as 46%. The “NO-NSAID response rate % (average)” value (Afatinib (10 μM), NO-NSAID 500 μM) was 38%, the “NO-NSAID response rate % (average)” value (Cabozantinib (5 μM), NO-NSAID 0.1 μM) was 3% and the “NO-NSAID response rate % (average)” value (Cabozantinib (5 μM), NO-NSAID 1 μM) was 4%. For the same compound, the “NO-NSAID response rate % (average)” value [2] was 10%, the “NO-NSAID response rate % (average)” value (Cabozantinib (5 μM), NO-NSAID 500 μM) was 12% and the “NO-NSAID response rate % (average)” value (Dabrafenib (10 μM), NO-NSAID 0.1 μM) was 23%. For the same compound, the “NO-NSAID response rate % (average)” value (Dabrafenib (10 μM), NO-NSAID 1 μM) was 36%, the “NO-NSAID response rate % (average)” value [3] was 49% and the “NO-NSAID response rate % (average)” value (Dabrafenib (10 μM), NO-NSAID 500 μM) was 30%. For the same compound, the “NO-NSAID response rate % (average)” value (Everolimus (5 μM), NO-NSAID 0.1 μM) was −11%, the “NO-NSAID response rate % (average)” value (Everolimus (5 μM), NO-NSAID 1 μM) was −6% and the “NO-NSAID response rate % (average)” value [4] was 33%. For the same compound, the “NO-NSAID response rate % (average)” value (Everolimus (5 μM), NO-NSAID 500 μM) was −9%, the activation at 100 µM [1] was 46% and the activation at 100 µM (Anlotinib (5 μM), NO-NSAID 100 μM) was 78%. It also gave an activation at 100 µM (Apatinib (10 μM), NO-NSAID 100 μM) of 56%, an activation at 100 µM (Axitinib (10 μM), NO-NSAID 100 μM) of 77% and an activation at 100 µM [2] of 10%. The activation at 100 µM [3] was 49%, the activation at 100 µM (Dacomitinib (5 μM), NO-NSAID 100 μM) was 12% and the activation at 100 µM (Encorafenib (5 μM), NO-NSAID 100 μM) was 76%. The activation at 100 µM (Erdafitinib (10 μM), NO-NSAID 100 μM) was 49%, the activation at 100 µM [4] was 33% and the activation at 100 µM (Famitinib (5 μM), NO-NSAID 100 μM) was 31%. For the same compound, the activation at 100 µM (Fruquintinib (10 μM), NO-NSAID 100 μM) was 41%, the activation at 100 µM (Gefitinib (10 μM), NO-NSAID 100 μM) was 76% and the activation at 100 µM [5] was 73%. It also gave an activation at 100 µM [6] of 16%, an activation at 100 µM (Lenvatinib (10 μM), NO-NSAID 100 μM) of 34% and an activation at 100 µM (Olmutinib (10 μM), NO-NSAID 100 μM) of 33%. For the same compound, the activation at 100 µM (Regorafenib (5 μM), NO-NSAID 100 μM) was 50%, the activation at 100 µM (Selumetinib (5 μM), NO-NSAID 100 μM) was 83% and the activation at 100 µM (Sorafenib (5 μM), NO-NSAID 100 μM) was 56%. For the same compound, the activation at 100 µM (Sunitinib (5 μM), NO-NSAID 100 μM) was 65%, the activation at 100 µM (Vemurafenib (5 μM), NO-NSAID 100 μM) was 54% and the “NO-NSAID response rate % (average)” value (Infigratinib (15 μM), NO-NSAID 0.1 μM) was 30%. For the same compound, the “NO-NSAID response rate % (average)” value (Infigratinib (15 μM), NO-NSAID 1 μM) was 18%, the “NO-NSAID response rate % (average)” value [5] was 73% and the “NO-NSAID response rate % (average)” value (Infigratinib (15 μM), NO-NSAID 500 μM) was 17%. For the same compound, the “NO-NSAID response rate % (average)” value (Lapatinib (5 μM), NO-NSAID 0.1 μM) was 14%, the “NO-NSAID response rate % (average)” value (Lapatinib (5 μM), NO-NSAID 1 μM) was 32% and the “NO-NSAID response rate % (average)” value [6] was 16%. The “NO-NSAID response rate % (average)” value (Lapatinib (5 μM), NO-NSAID 500 μM) was 20% and the “NO-NSAID response rate % (average)” value (Lenvatinib (10 μM), NO-NSAID 0.1 μM) was 25%.
